Biological target: P2Y10 (Homo sapiens, UniProt O00398)
Assay: LPA receptor-mediated Ca2+ mobilization assay, P2Y10
Format: cell-based
Details: for EC50: agonist, Ca2+ mobilization; for inhibition of P2Y10 Ca2+ response: 10 μM, ~EC75 LPA 18:1; for P2Y10 Imax (%): inhibition by 10 μM compound of ~EC75 LPA 18:1 Ca2+ response
Protocol: Similarity searches were performed separately using each fingerprint to quantitate similarity. Hits meeting the 80% similarity threshold from each search were ranked based on the Tanimoto coefficient measure of similarity to a target molecule NSC12404, and the top 75 unique hits from each fingerprint search were selected for further analysis. The 225 compounds selected for further analysis were clustered based on Tanimoto coefficients calculated using Molecular ACCess System-key fingerprints (MACCS keys) and evaluated using the diversity subset function implemented in MOE. This selected a diverse subset of 27 compounds for biological evaluation by choosing the middle compounds in each cluster. These 27 compounds were tested in Ca^2+ mobilization assays at a concentration of 10 μM using stable cell lines individually expressing LPA2 and also in vector-transfected control cells. Hits activating LPA2 were further tested using cells expressing the other established and putative LPA GPCRs. Experimental testing of the selected compounds identified the three new selective LPA2 agonists: GRI977143, H2L5547924, and H2L5828102. […] They arbitrarily selected GRI977143 for further characterization in cell-based assays.
J Biol Chem (2009) 284(25): 17304-17319). […] The cells were loaded with Fura-2-acetoxymethyl esther (Fura-2/AM) in Krebs buffer containing 0.01% pluronic acid for 30 min and rinsed with Krebs buffer before measuring Ca^2+ mobilization. The ratio of peak emissions at 510 nm after 2 min of ligand addition was determined for excitation wavelengths of 340 nm/380 nm. All samples were run in quadruplicate. […] The half maximally effective concentration (EC50), and inhibitory constant (Ki) values were calculated by fitting a sigmoid function to dose-response data points using KaleidaGraph software (version 4.1, Synergy Software; […]).
Mouse embryonic fibroblast (MEF) cells were isolated from E13.5 LPA1&2 double knockout (DKO) embryos. MEFs were transduced with empty vector or LPA2-containing lentiviruses and selected with 1.5 μg/ml puromycin. Cells were maintained in Dulbecco's modified Eagle medium (DMEM) supplemented with 10% (V/V) fetal bovine serum (FBS), 2 mM L-glutamine, 100 U/mL penicillin, and 100 μg/mL streptomycin. Serum-free medium contained 0.1% (W/V) BSA in DMEM. The rat intestinal epithelial cell line 6 (IEC-6) was obtained from the American Type Culture Collection (Rockville, Md.) at passage 13; passages 16-21 were used in all experiments. IEC-6 cells were maintained in a humidified 37° C. incubator in an atmosphere of 90% air and 10% CO2. Growth medium consisted of DMEM supplemented with 5% heat inactivated FBS, 10 μg/mL insulin, and 50 μg/mL gentamycin. The composition of the serum-starvation medium was the same as that of the full growth medium except that it contained no FBS. The McArdle rat hepatoma cell line (RH7777) stably expressing LPA2 receptors was a gift from Dr. Fumikazu Okajima (Gunma University, Maebashi, Japan). RH7777 cells stably expressing LPA1 or LPA3 receptors were generated in-house and had been characterized earlier. Wild type and LPA receptor (LPAR) stably transfected RH7777 cells were grown in DMEM supplemented with 10% FBS and 2 mM L-glutamine in the presence of 250 μg/ml G418. Chinese hamster ovary (CHO) cells stably expressing either vector or LPA4 receptor were a kind gift from Dr. Takao Shimizu (Tokyo University; Tokyo, Japan). Cells were cultured in Ham's F12 medium containing 10% FBS, 2 mM L-glutamine, and 350 μg/ml G418. Rat neuroblastoma cells (B103) were transduced with the lentivirus harboring wild type of FLAG-LPA5 and selected with puromycin to establish the stable cell lines. The stable cells were maintained in DMEM supplemented with 10% FBS and 0.4 μg/ml puromycin. GPR87- and P2Y10-expressing CHO cells and vector-transfected control cells were a gift from Dr. Norihisha Fujita (Ritsumeikan University; Shiga, Japan). […]

P2Y10, sequence (O00398 whole entry): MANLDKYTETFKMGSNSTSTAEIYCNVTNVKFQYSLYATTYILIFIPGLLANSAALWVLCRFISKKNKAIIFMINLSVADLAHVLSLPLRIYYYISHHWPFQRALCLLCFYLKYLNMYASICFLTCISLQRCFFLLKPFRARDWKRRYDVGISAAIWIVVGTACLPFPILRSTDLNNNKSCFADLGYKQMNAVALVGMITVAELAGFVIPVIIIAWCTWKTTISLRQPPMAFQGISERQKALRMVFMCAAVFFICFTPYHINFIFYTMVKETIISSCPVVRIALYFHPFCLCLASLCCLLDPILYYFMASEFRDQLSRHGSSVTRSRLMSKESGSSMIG

For `CCCCCCCC/C=C\CCCCCCCC(=O)OC[C@@H](O)COP(=O)(O)O` [LPA 18:1, Lysophosphatidic acid (18:1)], the EC50 was 0.029 µM.
`O=C(O)c1cc(Cl)c(Cl)cc1C(=O)Nc1ccc2c(c1)C(=O)c1ccccc1-2` [Compound H2L5547924] was tested, and the “inhibition of P2Y10 Ca2+ response” value was “partially inhibited” and the “P2Y10 Imax (%)” value was 34%.
With `O=C(O)c1ccccc1C(=O)Nc1ccc2c(c1)C(=O)c1ccccc1C2=O` [Compound H2L5828102] the “inhibition of P2Y10 Ca2+ response” value was “partially inhibited” and the “P2Y10 Imax (%)” value was 39%.
With `O=C(O)c1ccccc1C(=O)Nc1ccc2c(c1)C(=O)c1ccccc1-2` [NSC12404] the EC50 was greater than 10 µM.
Compound `O=C(O)c1ccccc1SCCCN1C(=O)c2cccc3cccc(c23)C1=O` [GRI977143] has an EC50 greater than 10 µM.
